This note sets out measurements from patent US11179437B2, “COP9 signalosome (CSN) complex modulators and uses thereof” (Yeda Research and Development Co. Ltd., priority 2017, dated 2021).

One test has as its system HAP1 cells. The test can be described thus: Cell cycle analysis by flow cytometry (double thymidine block or asynchronous BrdU/propidium iodide). Format: cell-based, human. Particulars: WT cells expressing or exposed to the C-terminal CSNAP segment; release from double thymidine block (FIG. 9).
A further test has as its system cells. The test can be described thus: Cell death in cells exposed to the C-terminal peptide. In kind it is cell-based.

Experimental for HAP1 cells: UV treated cells were exposed to 5 J/m^2 dose at release, and fixed with ethanol at different time points. Cell cycle phases were assessed by flow cytometry (LSRII, BD Biosciences) following propidium iodide staining. Asynchronous cells were analyzed using propidium iodide and BrdU double staining. 10^5 cells were denatured after fixation using 2N HCl, 0.5% Triton X-100 in PBS for 30 minutes, neutralized in 0.1M Na2B4O7 pH8.5 and incubated with 5 μl of anti-BrdU-FITC (eBioscience 11-5071-41) 1% BSA, 0.5% Triton X-100 in PBS for 1 hour. Cells were washed in 1% BSA in PBS and resuspended in PBS containing 50 μg/ml propidium iodide and 50 μg/ml RNAse A, and analyzed in FACSAria Fusion flow cytometer (BD Biosciences).

Turning to “DFFNDFEDLFDDDDIQ [C-terminal peptide, peptide comprising the C-terminal region of CSNAP, responsible for assembly into the CSN complex]”, the cell cycle progression result in the test on HAP1 cells is reported as “capable of preventing cell cycle progression”. In addition, in the test with cells, the “induction of cell death” value is listed as “induce cell death”.
